Laboratory results from US7816390B2, “N-substituted tricyclic 3-aminopyrazoles as anti-mitotic tubulin polymerization inhibitors” (Janssen Pharmaceutica NV, priority 2008, dated 2010).
“And” between values parts separate entries of the source, which are not always exact repeats. Equal entries are not always repeated. Where two headings read alike, the source gives them in different places.

What was measured:
bovine tubulin = assay: In vitro tubulin polymerization assay (CytoDYNAMIX Screen 03); format: biochemical; details: for effect on tubulin polymerization curve (Vmax): 10 μM; for IC50: 3 mg/mL bovine tubulin, absorbance at 340 nm, relative to Vmax of DMSO controls, read-out: IC50 for inhibition of tubulin polymerization
Procedure: Compounds were assayed in vitro for effects on tubulin polymerization using a commercially available assay kit from Cytoskeleton (CytoDYNAMIX Screen 03).
Methods: Briefly, this assay is based on the observation that light scattered by microtubules is proportional to the concentration of microtubule polymer. The standard polymerization reaction contains 100 μL volume of tubulin solution consisting of 3 mg/mL bovine tubulin in 80 mM PIPES pH 6.9, 0.5 mM EGTA, 2 mM MgCl2, 1 mM GTP and 10% glycerol. The tubulin solution (100 μL/well) is added rapidly to wells of a 96-well plate containing duplicate aliquots (10 μL) of experimental compounds in DMSO to achieve a final well concentration of 1.0 and 10 μM in a preliminary screening assay. Control wells contain the same final concentration of DMSO (<0.5%). Following initiation of the polymerization reaction by incubation at 37° C., absorbance at 340 nm is measured every minute for 60 minutes using a SpectraMax plate reader. […] Inhibition of tubulin polymerization by experimental compounds is calculated relative to the Vmax of the DMSO controls. A more detailed description of assay conditions and assay optimization can be found in the Assay Kit Instructions. The resulting polymerization curve (OD vs. Time in sec) is represented by three phases of microtubule polymerization, including nucleation (Phase I), microtubule growth (Phase II) and finally, steady-state equilibrium (Phase III). Compounds that interact (bind) with tubulin alter one or more of these characteristic phases of tubulin polymerization.

[1] = test system: human tumor cell lines (AsPC-1, H460, PC3, T45D, A375, LoVo); assay: Tumor cell proliferation assay (14C-thymidine incorporation); format: cell-based
Procedure: (§1) The compound N-(3-ethoxyphenyl)-1,4-dihydro-6-ethoxy-7-(3-hydroxypropoxy)-1-methylindeno[1,2-c]pyrazole-3-amine was evaluated for direct effects on the growth of several human tumor cell lines derived from human cancers of varying origin (HeLa, cervical, H460 lung, LoVo colon, LnCAP and PC3 prostate lines, T47D breast, A375 melanoma, AsPC1 pancreatic and U87MG glioblastoma) and on the proliferation of normal human umbilical vein endothelial cells (HUVEC). Colchicine, nocodazole, doxorubicin and paclitaxel were evaluated as comparators.
(§2) Methods: Tumor cell anti-proliferative activity was assessed using standard in vitro cell proliferation assays in which the IC50 for inhibition of cell proliferation by a compound was measured using ^14C-thymidine incorporation into cellular DNA. Briefly, cells were plated into 96-well microplates and allowed to adhere overnight. Compound was added the next day and cells were incubated for an additional 24 hours. [^14C]-thymidine was allowed to incorporate into cellular DNA for 24 hours after which the plate was washed and counted in a scintillation counter.

[2] = test system: tubulin (colchicine binding site); assay: Radiolabeled [3H]-colchicine competition SPA assay
[3] = test system: tubulin (colchicine binding site); assay: ThermoFluor binding assay
[4] = test system: human umbilical vein endothelial cells (HUVEC); assay: HUVEC proliferation assay (14C-thymidine incorporation); format: cell-based
Procedure: as §1, §2

With `COC(=O)Nc1nc2ccc(C(=O)c3cccs3)cc2[nH]1` [nocodazole] the “effect on tubulin polymerization curve (Vmax)” value (bovine tubulin) was “significant decrease in the Vmax” and the IC50 (bovine tubulin) was 1.5 µM.
For `CC(=O)O[C@H]1C(=O)[C@@]2(C)[C@H]([C@H](OC(=O)c3ccccc3)[C@]3(O)C[C@H](OC(=O)[C@H](O)[C@@H](NC(=O)c4ccccc4)c4ccccc4)C(C)=C1C3(C)C)[C@]1(OC(C)=O)CO[C@@H]1C[C@@H]2O` [paclitaxel], the effect on tubulin (bovine tubulin) was “stabilization of tubulin”, the “effect on tubulin polymerization curve (Vmax)” value (bovine tubulin) was “dramatic enhancement of the Vmax of the growth phase” and the anti-proliferative potency ([1]; H460 lung, T47D breast, PC3 prostate and LoVo colon lines) was “sub-nM potency”.
`CC[C@]1(O)C[C@@H]2CN(CCc3c([nH]c4ccccc34)[C@@](C(=O)OC)(c3cc4c(cc3OC)N(C)[C@H]3[C@@](O)(C(=O)OC)[C@H](OC(C)=O)[C@]5(CC)C=CCN6CC[C@]43[C@@H]65)C2)C1` [vinblastine, reference compound] was tested, and the “competition with [3H]-colchicine binding” value [2] was “no significant competition”.
For `CCOc1cccc(Nc2nn(C)c3c2Cc2cc(OCC)c(OCCCO)cc2-3)c1` [N-(3-ethoxyphenyl)-1,4-dihydro-6-ethoxy-7-(3-hydroxypropoxy)-1-methylindeno[1,2-c]pyrazole-3-amine], the IC50 (bovine tubulin) was 2.4 µM and 2.4 to 3.7 µM, the “competition with [3H]-colchicine binding” value [2] was “competed with [^3H]-colchicine binding in a manner similar to unlabeled colchicine” and the “binding at the colchicine binding site” value [3] was “binding of this compound at the colchicine binding site was also demonstrated”. The “fold less potent compared to paclitaxel” value ([1]; depending on the cell line examined) was “approximately 10 fold”, the IC50 ([1]; range over 6 of 6 human tumor cell lines (AsPC-1, H460, PC3, T45D, A375, LoVo), read-out: IC50 for inhibition of tumor cell proliferation) was 0.002 to 0.01 µM and the IC50 ([4]; read-out: IC50 for inhibition of LSGS-stimulated HUVEC growth) was < 0.01 µM. The IC50 ([4]; read-out: IC50 versus confluent, non-proliferating HUVEC cells) was > 10 µM.
